Source: patent US5919790A, “Hydroxamate inhibitors of interleukin-1β converting enzyme” (Warner-Lambert Company, priority 1997, dated 1999)
pIC50, pKi: −log10 of the molar value. Read-outs that look alike come from different tables or passages of the source.

Legend:
Ich-2 = target: T1, Ich-2 (Homo sapiens, UniProt P49662); experiment: Ich-2 Colorimetric Dose-Response (IC50) Assay; assay type: biochemical; conditions: 64 nM enzyme, 60 μM Ac-Leu-Glu-Val-Asp-pNA
T1 sequence (P49662 81-270 limits assumed): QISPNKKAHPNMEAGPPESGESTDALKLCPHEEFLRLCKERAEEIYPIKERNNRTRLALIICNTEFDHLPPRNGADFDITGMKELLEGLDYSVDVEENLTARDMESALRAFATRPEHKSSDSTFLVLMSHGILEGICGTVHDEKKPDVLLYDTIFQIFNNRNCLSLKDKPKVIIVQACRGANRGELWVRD
T1 sequence (P49662 290-377 limits assumed): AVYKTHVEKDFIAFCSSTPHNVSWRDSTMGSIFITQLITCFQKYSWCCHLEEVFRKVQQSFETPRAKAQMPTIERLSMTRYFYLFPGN
Experimental: Diluted inhibitor stocks are prepared by two-fold serial dilution from a primary stock whose concentration is selected (based on screening results or on prior attempts at IC50 evaluation) to achieve approximately 95% inhibition in the most concentrated well. Aliquots of each dilution are transferred to a microtitre plate in triplicate.
ICE enzyme is diluted to approximately 24 nM in HGE buffer (100 mM Hepes pH 7.5, 0.5 mM EDTA, 20% glycerol, 0.1% Bovine Serum Albumin (BSA), and activated by adding dithiothreitol (DTT) to a final concentration of 5 mM. The activated enzyme is then aliquoted into wells containing inhibitor or vehicle, and the plate is preincubated for 60 minutes at ambient temperature. Substrate (Ac-Tyr-Val-Ala-Asp-pNA) is added to each well to a final concentration of 50 μM, and plates are placed in the microtitre plate-reader thermostated to 25° C. Beginning 5 minutes after addition of substrate, absorbance (405 nm) of wells is monitored for 1 hour, and activity is calculated as the mean rate of change in absorbance during this interval.
Ich-2 Colorimetric Dose-Response (IC50 Assay
Inhibition of Ich-2 enzyme is assayed as described above for ICE, except that enzyme is used at 64 nM, and 60 μM of the Ich-2-specific substrate Ac-Leu-Glu-Val-Asp-pNA is used instead of the ICE substrate Ac-Tyr-Val-Ala-Asp-pNA.

[1] = target: T2, ICE (interleukin-1β converting enzyme) (Homo sapiens, UniProt P29466); experiment: ICE Colorimetric Dose-Response (IC50) Assay; assay type: biochemical; conditions: 50 μM Ac-Tyr-Val-Ala-Asp-pNA, 60 min preincubation, pH 7.5, 25° C.
T2 sequence (P29466 120-297 limits assumed): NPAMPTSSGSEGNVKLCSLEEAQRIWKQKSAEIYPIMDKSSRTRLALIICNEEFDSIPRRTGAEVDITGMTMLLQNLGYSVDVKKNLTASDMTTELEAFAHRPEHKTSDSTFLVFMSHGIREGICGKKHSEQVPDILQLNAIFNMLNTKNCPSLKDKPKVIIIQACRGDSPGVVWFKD
T2 sequence (P29466 317-404 limits assumed): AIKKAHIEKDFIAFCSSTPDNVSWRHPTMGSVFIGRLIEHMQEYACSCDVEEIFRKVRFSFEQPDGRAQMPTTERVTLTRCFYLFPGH
Experimental: Substrate hydrolysis is monitored for 300 seconds by observing the fluorescence of released AMC using excitation at 380 nm and emission at 460 nm. Mean rates of substrate hydrolysis are evaluated by linear-regression analysis of the fluorescence vs time traces. […] ICE Colorimetric Dose-Response (IC50) Assay Diluted inhibitor stocks are prepared by two-fold serial dilution from a primary stock whose concentration is selected (based on screening results or on prior attempts at IC50 evaluation) to achieve approximately 95% inhibition in the most concentrated well. Aliquots of each dilution are transferred to a microtitre plate in triplicate. […] The activated enzyme is then aliquoted into wells containing inhibitor or vehicle, and the plate is preincubated for 60 minutes at ambient temperature. Substrate ([…]) is added to each well to a final concentration of 50 μM, and plates are placed in the microtitre plate-reader thermostated to 25° C. Beginning 5 minutes after addition of substrate, absorbance (405 nm) of wells is monitored for 1 hour, and activity is calculated as the mean rate of change in absorbance during this interval.

[2] = target: T2, ICE (interleukin-1β converting enzyme); experiment: ICE inhibition, Ki, fluorescence assay with Ac-Tyr-Val-Ala-Asp-AMC; assay type: biochemical; conditions: 15 μM substrate Ac-Tyr-Val-Ala-Asp-AMC; 0.24 nM ICE; reversible, competitive model
Experimental: Substrate hydrolysis is monitored for 300 seconds by observing the fluorescence of released AMC using excitation at 380 nm and emission at 460 nm. Mean rates of substrate hydrolysis are evaluated by linear-regression analysis of the fluorescence vs time traces. […] ICE Colorimetric Dose-Response (IC50) Assay

[3] = system: IL-1β production in human peripheral blood mononuclear cells (PBMCs); experiment: inhibition of LPS-stimulated IL-1β production in human PBMCs (ELISA); assay type: cell-based; conditions: LPS stimulated overnight, mature IL-1β by ELISA
From the text: (§1) Further evidence that compounds of Formula I are inhibitors of ICE is provided by their ability to inhibit IL-1β production in human peripheral blood mononuclear cells (PBMCs) as described herein. PBMCs are isolated from heparinized blood by centrifugation over a ficoll cushion, then washed three times with phosphate-buffered saline. PBMCs are suspended in a medium containing RPMI 1640 with glutamine, penicillin, streptomycin and 2% human AB serum, then plated at 10^6 cells per well in 96 well flat bottom plates. PBMCs are stimulated overnight with 10 ngmL of lipopolysaccharide (LPS, E. coli strain 0111:B4; Calbiochem) in the presence or absence of a compound of Formulas I or II. Medium is harvested and the level of mature IL-1β was determined using an ELISA kit from R & D Systems. Cells were cultured for an additional 4 hours in the presence of 3-(4,5-dimethylthiazol-2-yl)-2,5-diphenyltetrazolium bromide (MTT) to determine viability.

PBMC viability (MTT) = assay type: cell-based; conditions: human PBMCs, additional 4 hours, read-out: PBMC TC50
From the text: as §1

Row | SMILES | pIC50 (Ich-2) | pIC50 [1] | pKi [2] | pIC50 ([3]; PBMC) | CC50 at 4 h (PBMC viability (MTT)) | pIC50 ([3]; read-out: PBMC IC50)
1 | CC(NC(=O)C(NC(=O)OCc1ccccc1)C(C)C)C(=O)NC(CC(=O)O)C(=O)CON1C(=O)Cc2ccccc21 (centres unmarked) [Example 8, 3-[2-(2-benzyloxicarbonylamino-3-methyl-butyrylamino)-propionylamino]-4-oxo-5-(2-oxo-2,3-dihydro-indol-1-yloxy)-pentanoic acid] | 8.30 | 8.52 | 8.70 | 5.52 |  | 
2 | COC(=O)CC1CCCC2CC(=O)N(OCC(=O)[C@H](CC(=O)O)NC(=O)OCc3ccccc3)C12 (some centres unmarked) [Example 5, 3-Benzyloxycarbonylamino-5-(7-methoxycarbonylmethyl-2-oxo-octahydro-indol-1-yloxy)-4-oxo-pentanoic acid] | 4.47 | 4.10 | 4.82 | 3.05 |  | 
3 | O=C(O)CC(NC(=O)OCc1ccccc1)C(=O)CON1C(=O)CC2CCCCC21 (centres unmarked) [Example 6] |  | 4.43 | 5.04 |  |  | 
4 | O=C(O)C[C@H](NC(=O)OCc1ccccc1)C(=O)CON1CCCC1=O [Example 2, 3-Benzyloxycarbonylamino-4-oxo-5-(2-oxo-pyrrolidin-1-yloxy)-pentanoic acid] |  | 3.40 | 4.06 |  |  | 
5 | O=C(O)CC(NC(=O)OCc1ccccc1)C(=O)CON1C(=O)Cc2ccccc21 (centres unmarked) [Example 4, 3-Benzyloxycarbonylamino-5-(2-oxo-2,3-dihydro-indol-1-yloxy)-4-oxo-pentannic acid] | 7.10 | 5.51 | 5.80 | 3.00 | 1000 µM | 
6 | COC(=O)CC1CCCC2CC(=O)N(OCC(=O)C(CC(=O)O)NC(=O)C(C)NC(=O)C(NC(=O)OCc3ccccc3)C(C)C)C12 (centres unmarked) [Example 7] | 6.85 | 7.59 | 8.15 |  |  | 5.32

Further compounds by rising pIC50 [1], results first:

Row | pIC50 (Ich-2) | pIC50 [1] | pKi [2] | SMILES | pIC50 ([3]; PBMC) | CC50 at 4 h (PBMC viability (MTT)) | pIC50 ([3]; read-out: PBMC IC50)
7 |  | 3.59 | 4.10 | O=C(O)CC(NC(=O)OCc1ccccc1)C(=O)CONC(=O)Cc1ccccc1 (centres unmarked) [Example 1, 3-Benzyloxycarbonylamino-4-oxo-5-phenylacetylaminooxy-pentanoic acid] | 3.09 |  | 
8 | 7.00 | 6.34 | 5.68 | O=C(O)C[C@H](NC(=O)OCc1ccccc1)C(=O)CON1C(=O)C2C3C=CC(O3)C2C1=O (some centres unmarked) [Example 3, 3-Benzyloxycarbonylamino-5-(3,5-dioxo-10-oxa-4-aza-tricyclo[5.2.1.0^2,6]dec-8-en-4-yloxy)-4-oxo-pentanoic acid] | 3.00 | 1000 µM | 
